The text below walks through data of patent publication US5585382A, “Polycyclic and heterocyclic chromophores for bis-imide tumoricidals” (The DuPont Merck Pharmaceutical Company, priority 1995, dated 1996).

In series [1] the test system is Murine leukemia L1210 cells. The series can be described thus: In vitro growth inhibition of L1210 cells (MTT, 72 hr). It counts as cell-based. The following applies: Mus musculus, read-out: L1210 IC50. As for the experimental part:
(§1) The reagents for tissue culture were purchased from GIBCO (Grand Island, N.Y.). 5-Dimethylthiazol-2-yl)-2,5-diphenyl tetrazolium bromide (MTT) was purchased from Sigma Chemical Company (St. Louis, Mo.). All agents were prepared as 2 mg/ml stock solutions in DMSO. MTT was prepared as a 1 mg/ml stock solution in Dulbecco's phosphate buffered saline (PBS). All stocks were stored frozen in the dark at -20° C.
(§2) Clone A human colon cancer cells were isolated from the heterogeneous DLD-1 colon tumor line and maintained as previously described (Dexter, D. L.; Barbosa, J. A.; Calabresi, P. Cancer Research 1979, 39, 1020; Dexter, D. L.; Spremulli, E. M.; Fligiel, A.; Barbosa, J. A.; Vogel, R.; Van Vorhees, A.; Calabresi, P. Am. J. Med. 1981, 71, 949.). Murine leukemia L1210 cells were maintained in RPMI-L medium as described (Chen, S.-F.; Ruben, R. L.; Dexter, D. L. Cancer Research 1986, 46, 5014.). All cell lines were incubated at 37° C. in a humidified atmosphere of 5% CO2 -95% air.
(§3) Exponentially growing L1210 cells (1×10^3), or Clone A cells (8×10^2) in 0.1 ml medium were seeded in a 96-well microtiter plate on day 0. On day one, 0.1 ml aliquots of medium containing graded concentrations of test compounds were added to the cell plates. After incubation at 37° C. in a humidified incubator for 72 hr, the plates containing L1210 cells were centrifuged briefly and 100 μl of the growth medium was removed. Cell cultures were incubated with 50 μl of MTT for 4 h at 37° C. (12). The resulting purple formazan precipitate was solubilized with 200 μl of 0.04 N HCl in isopropyl alcohol. Absorbance was read in a Titertek Multiskan MCC scanning well spectrophotometer (Flow Laboratories) at a test wavelength of 570 nm and a reference wavelength of 630 nm. The absorbances were stored on a floppy disk on an IBM-XT and uploaded onto a VAX computer. IC50 values were determined by a computer program that fit the data to the following equation:
(§4) Y=((Am -Ao)/(1+(X/IC50)^n))+Ao
(§5) where Am =absorbance of the control cells; Ao =absorbance of the cells in the presence of highest compound concentration; Y=observed absorbance; X=compound concentration; IC50 =dose of compound that inhibits the number of population doublings of cells to one half that of the number of population doublings of the control cells; and n equals the slope of the straight portion of the curve.
(§6) The values reported in the table are from at least one experiment performed in eight replicates. If more than one experiment was performed, the number reported is the average of all the trials

Series [2] has as its system Clone A human colon cancer cells. Put plainly: In vitro growth inhibition of Clone A cells (MTT, 72 hr). The class given is cell-based. The following applies: read-out: Clone A IC50. As for the experimental part: as §1, §2, §3, §4, §5, §6
The subject of series [3] is MX-1 human mammary carcinoma. The series can be described thus: In vivo human tumor xenograft MX-1 in nude mice. The following applies: for Tumor Growth Inhibition activity against MX-1 (in words): NCI criteria. The text has this: The DLD-2 human colon tumor and MX-1 human mammary carcinoma, were originally obtained from a surgically-removed primary colon carcinoma or breast tumor respectively. The human tumor lines were maintained by serial passage in athymic nude mice. The MX-1 human mammary carcinoma is an established tumor used by the NCI. The DLD-2 human colon tumor has been well characterized. (Dexter, D. L.; Spremulli, E. N.; Matook, G. M.; Diamond, I.; Calabresi, P. Cancer Research 1982, 42, 5010; Dexter, D. L.; Barbosa, J. A.; Calabresi, P. Cancer Research 1979, 39, 1020.)
The mice used in these experiments were outbred Swiss mice or CD-1 mice bearing the nude (nu/nu) gene. On Day 0, male and female mice weighing 22-30 g are inoculated with 0.2 mL of a 25% tumor mince. This mince is prepared by mincing fresh tumor tissue, grown subcutaneously in passage mice, in sterile physiological saline. Palpable tumors weighing approximately 50 mg appear in the mice within 7-10 days after inoculation. The mice are pair matched by tumor weight and sex into groups of ten each and the test compounds and vehicle control are administered intravenously (i.v.) once daily for nine consecutive days. A >20% decrease in body weight on Day 5 following compound administration is considered an indication of toxicity. Tumor measurements and body weights are recorded once a week. Fifteen to eighteen days after the initial injection the mice are weighed, sacrificed, and the tumors excised and weighed.
The efficacy of the test compounds is determined by the extent of tumor growth inhibition in treated versus vehicle-treated control mice. Initial tumor weights (mg) are calculated from the tumor dimensions (mm) obtained from caliper measurements, using the formula for a prolate ellipsoid (mg of tumor weight=(length×width^2)/2). Net tumor weights are calculated for each of the treated groups and the vehicle-treated control group by subtracting the initial tumor weight from the final tumor weight (Day 15-18). Results are expressed as a percentage decrease relative to the mean tumor weight for the control vehicle-treated group.
Tumor Growth Inhibition= [formula]
The evaluation criteria of the National Cancer Institute for activity in in vivo cancer models were used. Tumor growth inhibition of 58-89% against the various xenografts is considered moderate activity, and inhibition of ≥90% is considered good to excellent activity. Actual tumor regressions (IR=incomplete regression; FR=full regression) indicate excellent to outstanding activity.
For orientation: In xenograft studies the graft and the host belong to different species.

Where [4] appears, read: Mus musculus, iv, 216 h, read-out: MX-1 percent tumor growth inhibition.
[5] abbreviates: i.v. once daily for nine days, nude mice.
Setting [6] is: Mus musculus, iv, 216 h, i.v. once daily for nine days, nude mice, read-out: MX-1 percent tumor growth inhibition.
Setting [7] is: Mus musculus, iv, 216 h, read-out: MX-1 tumor regressions, IR=incomplete regression.

The term IC50 denotes the point on the concentration scale where inhibition reaches its midpoint. Usually solubility stands for how much of the substance goes into solution per volume.

Values after ≈ are worked out from the molar mass of the structure shown. Read-outs that look alike come from different tables or passages of the source.

On to `CS(=O)(=O)O.CS(=O)(=O)O.O=C1c2cc([N+](=O)[O-])cc3c2c(cc2ncccc23)C(=O)N1CCNCCNCCN1C(=O)c2cc([N+](=O)[O-])cc3c2c(cc2ncccc23)C1=O` [Example 19, 1,2-bis-[2-(3-Nitro-8-azaphenanthrene-1,10-dicarboximido)ethylamino]ethane Dihydromethanesulfonate], for which the IC50 was found to be 0.013 µg/mL in series [1] (L1210, 72 h) and 0.009 µg/mL in series [2] (72 h). In addition, the inhibition in vivo at 6 mg/kg in series [3] (setting [4]) was 84%. The “Tumor Growth Inhibition activity against MX-1 (in words)” value (“Tumor Growth Inhibition activity” below) in series [3] (setting [5]) is given as “moderate to excellent”. In addition, the solubility in the series “Solubility in water” came to 950 µg/mL.

Turning to `Cc1cnc2c(c1)cc1c3c(cc([N+](=O)[O-])cc32)C(=O)N(C[C@H](C)NCCN[C@@H](C)CN2C(=O)c3cc([N+](=O)[O-])cc4c3c(cc3cc(C)cnc34)C2=O)C1=O` [Example 26], the IC50 was 0.018 µg/mL (≈ 0.0238 µM) in series [1] (L1210, 72 h) and 0.012 µg/mL (≈ 0.0159 µM) in series [2] (72 h). Also, the inhibition in vivo at 6.2 mg/kg in series [3] (setting [4]) came to 22%.

Turning to `Cc1cnc2c(c1)cc1c3c(cc([N+](=O)[O-])cc32)C(=O)N(CCCNCCN2C(=O)c3cc([N+](=O)[O-])cc4c3c(cc3cc(C)cnc34)C2=O)C1=O` [Example 22], the IC50 in series [1] (L1210 cells, 72 hr, MTT) stood at 0.02 µg/mL (≈ 0.0287 µM); in series [2] (Clone A cells, 72 hr, MTT), 0.003 µg/mL (≈ 0.0043 µM). Moreover, the inhibition in vivo at 25 mg/kg in series [3] (setting [6]) was found to be 0%. In the series “Solubility in water”, the concentration in solution (solubility) was 30 µg/mL (≈ 43 µM).

Turning to `Cc1cnc2c(c1)cc1c3c(cc([N+](=O)[O-])cc32)C(=O)N(CCNCCNCCN2C(=O)c3cc([N+](=O)[O-])cc4c3c(cc3cc(C)cnc34)C2=O)C1=O` [Example 23], the IC50 was determined as 0.042 µg/mL (≈ 0.0578 µM) in series [1] (L1210 cells, 72 hr, MTT) and 0.043 µg/mL (≈ 0.0592 µM) in series [2] (Clone A cells, 72 hr, MTT). Besides, the inhibition in vivo at 25 mg/kg in series [3] (setting [6]) stood at 0%. For the same compound, the solubility in the series “Solubility in water” came to 120 µg/mL (≈ 165 µM).

Take `CS(=O)(=O)O.CS(=O)(=O)O.O=C1c2cc([N+](=O)[O-])cc3c2c(cc2cccnc23)C(=O)N1CCNCCNCCN1C(=O)c2cc([N+](=O)[O-])cc3c2c(cc2cccnc23)C1=O` [Example 6, 1,2-bis-[2-(3-Nitro-5-azaphenanthrene-1,10-dicarboximido)ethylamino]ethane Dihydromethanesulfonate]: the IC50 turned out to be 0.041 µg/mL in series [1] (L1210, 72 h) and 0.005 µg/mL in series [2] (72 h). The inhibition in vivo at 12.5 mg/kg in series [3] (setting [4]) amounted to 81%. The “Tumor Growth Inhibition activity” value in series [3] (setting [5]) was “moderate to excellent”. Also, in the series “Solubility in water”, the solubility amounted to 330 µg/mL.

For the compound `CS(=O)(=O)O.CS(=O)(=O)O.CS(=O)(=O)O.Cc1nc2cc3c4c(cccc4c2[nH]1)C(=O)N(CCCCNCCCN1C(=O)c2cccc4c2c(cc2nc(C)[nH]c24)C1=O)C3=O` [Example 81, 4-[3-(2-Methyl-1H-naphth[1,2-d]imidazole-5,6-dicarboximido)propylamino]-1-(2-methyl-1H-naphth[1,2-d]imidazole-5,6-dicarboximido)butane Trihydromethanesulfonate], the IC50 amounted to 0.201 µg/mL in series [1] (L1210 cells, 72 hr, MTT) and 22.2 µg/mL in series [2] (Clone A cells, 72 hr, MTT). This compound also displayed a solubility in “Solubility in water” of 7600 µg/mL.

As for `CS(=O)(=O)O.CS(=O)(=O)O.CS(=O)(=O)O.O=C1c2cccc3c2c(cc2ccncc23)C(=O)N1CCCCNCCCN1C(=O)c2cccc3c2c(cc2ccncc23)C1=O` [Example 14, 4-[3-(6-Azaphenanthrene-1,10-dicarboximido)propylamino]-1-(6-azaphenanthrene-1,10-dicarboximido) butane Trihydromethanesulfonate], the IC50 came to 0.008 µg/mL in series [1] (L1210 cells, 72 hr, MTT) and 0.003 µg/mL in series [2] (Clone A cells, 72 hr, MTT). Besides, the solubility in “Solubility in water” worked out at 900 µg/mL.

For the compound `CS(=O)(=O)O.O=C1c2cccc3c2c(cc2ccc(F)cc23)C(=O)N1CCCCNCCCN1C(=O)c2cccc3c2c(cc2ccc(F)cc23)C1=O` [Example 56, 4-[3-(6-Fluorophenanthrene-1,10-dicarboximido)propylamino]-1-(6-fluorophenanthrene-1,10-dicarboximido)butane Hydromethanesulfonate], the IC50 stood at 0.365 µg/mL in series [1] (L1210, 72 h) and 0.222 µg/mL in series [2] (72 h). Also, in “Solubility in water”, the solubility is 40 µg/mL.

As to `CS(=O)(=O)O.Cc1cnc2c(c1)cc1c3c(cc([N+](=O)[O-])cc32)C(=O)N(CCCCNCCCN2C(=O)c3cc([N+](=O)[O-])cc4c3c(cc3cc(C)cnc34)C2=O)C1=O` [Example 12, 4-[3-(3-Nitro-7-methyl-5-azaphenanthrene-1, 10-dicarboximido)propylamino]-1-(3-nitro-7-methyl-5-azaphenanthrene-1, 10-dicarboximido)butane Hydromethanesulfonate], the IC50 in series [1] (L1210, 72 h) came to 0.027 µg/mL; in series [2] (72 h), 0.009 µg/mL. This compound also had a solubility in the series “Solubility in water” of 50 µg/mL.

On to `CS(=O)(=O)O.CS(=O)(=O)O.Cc1cnc2c(c1)cc1c3c(cc([N+](=O)[O-])cc32)C(=O)N([C@H](C)CNCCNC[C@@H](C)N2C(=O)c3cccc4cc([N+](=O)[O-])cc(c34)C2=O)C1=O` [Example 117, (R,R)-1-[2-(3-Nitro-7-methyl-5-azaphenanthrene-1, 10-dicarboximido)propylamino]-2-[2-(3-nitronaphthalene-1,8-dicarboximido)propylamino]ethane Dihydromethanesulfonate], for which the half-maximal inhibitory concentration (IC50) was 0.036 µg/mL in series [1] (L1210, 72 h) and 0.002 µg/mL in series [2] (72 h). In addition, in series [3] (setting [7]), the responders at 6 mg/kg was 100%. The “Tumor Growth Inhibition activity” value in series [3] (setting [5]) is recorded as “moderate to excellent”. The same compound gave a solubility in “Solubility in water” of 8700 µg/mL.

For the compound `CS(=O)(=O)O.CS(=O)(=O)O.C[C@@H](CN1C(=O)c2cc([N+](=O)[O-])cc3c2c(cc2cccnc23)C1=O)NCCN[C@@H](C)CN1C(=O)c2cc([N+](=O)[O-])cc3c2c(cc2cccnc23)C1=O` [Example 20, (S,S)-1,2-bis-[2-(3-Nitro-5-azaphenanthrene-1, 10-dicarboximido)-1-methylethylamino]ethane Dihydromethanesulfonate], in series [1] (L1210, 72 h), the IC50 was determined as 0.012 µg/mL. Besides, the inhibition in vivo at 6.2 mg/kg in series [3] (setting [4]) was found to be 95%. The responders at 6.2 mg/kg in series [3] (setting [7]) is 11.1%. In addition, the “Tumor Growth Inhibition activity” value in series [3] (setting [5]) is “moderate to excellent”. The compound also showed a solubility in “Solubility in water” of 3330 µg/mL.

For the compound `CS(=O)(=O)O.O=C1c2ccccc2C(=O)c2c1cc1c3c(cccc23)C(=O)N(CCCCNCCCN2C(=O)c3cccc4c5c(cc(c34)C2=O)C(=O)c2ccccc2C5=O)C1=O` [Example 100, 4-[3-(7,12-Dihydro-7,12-dioxobenz[a]anthracene-4,5-dicarboximido)propylamino]-1-(7,12-dihydro-7,12-dioxobenz[a]anthracene-4,5-dicarboximido)butane Hydromethanesulfonate], the IC50 was found to be 0.014 µg/mL in series [1] (L1210 cells, 72 hr, MTT) and 0.07 µg/mL in series [2] (Clone A cells, 72 hr, MTT). Also, in series [3] (Mus musculus, iv, 216 h, 20 mg/kg, i.v. once daily for nine days, nude mice, read-out: MX-1 percent tumor growth inhibition), the inhibition in vivo at 20 mg/kg turned out to be 24%. Moreover, in “Solubility in water”, the solubility was 160 µg/mL.
